{"source": "patent US20170087562A1", "about": "“METHOD FOR DETERMINING TREATMENT RESPONSE OF CELLS” (NATIONAL CHENG KUNG UNIVERSITY, priority 2015, published 2017)", "key": {"[1]": {"tested_on": "lung cancer cells AS2", "test": "Traveling-wave dielectrophoresis moving speed of cells after Taxol", "format": "cell-based", "details": "24 hours after treatment", "description": "The principle of the traveling-wave dielectrophoresis is similar with the electrorotation. The test cells can be pushed away by the electrodes when applying a negative electrophoresis force (nDEP) through two set of parallel electrode 13 and 14, so that the influence on the moving condition resulting from the friction between the test cells and chip surface can be reduced. The two set of parallel electrode 13 and 14 individually include several electrodes having a width ranged from 0.1 to 1000 microns, preferably 0.5 to 100 microns, for example 1 micron, 20 microns, 40 microns, 50 microns, or 60 microns; the width of the intervals ranged from 0.1 to 1000 microns, preferably 0.5 to 100 microns, for example 1 micron, 20 microns, 40 microns, 50 microns, or 60 microns. Moreover, in this uneven electric field, the electric signal has a periodic variation in value and direction (such as a sine wave), for example, 360/N of sine wave signal are subsequently applied to the parallel electrodes, wherein N is preferably equal to 4, so that the sine wave of the electrodes have intervals of 90 degrees from each other, but N is not limited thereto. The wave signal of each electrode continuously changes the phase thereof by time to provide the source of the moving force for traveling-wave electrophoresis. […]"}, "[2]": {"tested_on": "lung cancer cells AS2", "test": "Corresponding cell analysis after Taxol (cell death, proliferation inhibition/cells kill)", "format": "cell-based", "description": "The moving speed of the cell can be obtained by analyzing the moving distance perpendicular to the electrode at different time points. […]. […] The treatment response includes proliferation inhibition/cells kill which are the important indicators for determining whether the chemotherapy is effective on clinical. Therefore, the conclusion of the treatment response of cells to the treatment method can be obtained fast by using electrorotation, and the treatment effect of the clinical treatment can be estimated with high reliability, so that the analysis period indeed can be substantially shorten (24 hrs v.s. 48 hrs)."}}}
{"smiles": "CC(=O)O[C@H]1C(=O)[C@@]2(C)[C@H]([C@H](OC(=O)c3ccccc3)[C@]3(O)C[C@H](OC(=O)[C@H](O)[C@@H](NC(=O)c4ccccc4)c4ccccc4)C(C)=C1C3(C)C)[C@]1(OC(C)=O)CO[C@@H]1C[C@@H]2O", "note": "[Taxol]", "values": [{"measurement": "moving speed versus placebo (only DMSO)", "setting": "[1]", "result": "much slower"}, {"measurement": "proliferation inhibition/cells kill", "setting": "[2]; 24 hours", "result": "obvious"}, {"measurement": "cell death", "setting": "[2]; 48 hours", "result": "obvious"}, {"measurement": "proliferation inhibition/cells kill", "setting": "[2]; 48 hours", "result": "obvious"}]}
